Laboratory results: patent publication US20190134005A1 (BioMarin Pharmaceutical Inc., priority 2016, published 2019)

Target: T1, human CGT (Homo sapiens, UniProt Q16880)
T1 sequence (Q16880 21-541): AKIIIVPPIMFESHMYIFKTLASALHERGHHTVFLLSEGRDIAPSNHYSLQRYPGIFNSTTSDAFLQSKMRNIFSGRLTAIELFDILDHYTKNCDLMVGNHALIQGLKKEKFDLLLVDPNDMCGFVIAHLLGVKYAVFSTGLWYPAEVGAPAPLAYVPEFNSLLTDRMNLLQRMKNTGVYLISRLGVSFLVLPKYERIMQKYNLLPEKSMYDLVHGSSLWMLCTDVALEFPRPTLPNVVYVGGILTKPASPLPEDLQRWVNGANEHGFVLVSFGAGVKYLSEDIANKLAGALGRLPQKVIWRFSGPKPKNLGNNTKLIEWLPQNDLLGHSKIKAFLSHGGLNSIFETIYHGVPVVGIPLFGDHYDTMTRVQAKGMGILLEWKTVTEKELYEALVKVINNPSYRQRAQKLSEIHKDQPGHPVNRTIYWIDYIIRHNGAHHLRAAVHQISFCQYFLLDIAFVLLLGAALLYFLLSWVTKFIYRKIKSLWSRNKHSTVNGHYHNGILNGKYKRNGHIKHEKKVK
Assay: Assay 1: CGT Enzymatic Assay (RapidFire/MS/MS, 0.01% Tween 80)
Assay type: biochemical
Conditions: Table 1, Compounds of Formula (I) and Formula (II); CGT enzymatic assay, C6-NBD-dihydro-galactosylceramide readout; read-out: IC50

| IC50 [µM] | Structure (SMILES) |
| --- | --- |
| < 1 | O=C1N(c2ccc(Cl)cc2)C2(COC2)C(O)(c2cccc(OC(F)F)c2)N1c1ccc(Cl)cc1 (stereo not drawn) [Compound 272, 5,7-bis(4-chlorophenyl)-8-(3-(difluoromethoxy)phenyl)-8-hydroxy-2-oxa-5,7-diazaspiro[3.4]octan-6-one] |
| < 1 | N#Cc1cc(C#N)cc(C2(O)N(c3ccc(Cl)cc3)C(=O)N(c3ccc(Cl)cc3)C23COC3)c1 (stereo not drawn) [Compound 306, 5-(5,7-bis(4-chlorophenyl)-8-hydroxy-6-oxo-2-oxa-5,7-diazaspiro[3.4]octan-8-yl)isophthalonitrile] |
| < 1 | Cc1ccc(N2C(=O)N(c3ccc(C#N)cc3)C(O)(c3cccc(OC(F)(F)F)c3)C23CCC3)cc1 (stereo not drawn) [Compound 281, 4-(8-hydroxy-6-oxo-5-(p-tolyl)-8-(3-(trifluoromethoxy)phenyl)-5,7-diazaspiro[3.4]octan-7-yl)benzonitrile] |
| < 1 | Cc1ccc(N2C(=O)N(c3ccc(C)cc3)C(O)(c3cccc(OC(F)(F)F)c3)C23COC3)cc1 (stereo not drawn) [Compound 284, 8-hydroxy-5,7-di-p-tolyl-8-(3-(trifluoromethoxy)phenyl)-2-oxa-5,7-diazaspiro[3.4]octan-6-one] |
| < 1 | CCC1(CC)N(c2ccc(Cl)cc2)C(=O)N(c2ccc(Cl)cc2)C1(O)c1cccc(C#N)c1 (stereo not drawn) [Example 321, 3-(1,3-bis(4-chlorophenyl)-5,5-diethyl-4-hydroxy-2-oxoimidazolidin-4-yl)benzonitrile] |
| < 1 | Cc1ccc(N2C(=O)N(c3ccc(Cl)cc3)C(O)(c3cccc(C#N)c3)C23CCC3)cc1 (stereo not drawn) [Example 316, 3-(7-(4-chlorophenyl)-8-hydroxy-6-oxo-5-(p-tolyl)-5,7-diazaspiro[3.4]octan-8-yl)benzonitrile] |

| Structure (SMILES) | IC50 [µM] |
| --- | --- |
| CC1(C)N(c2ccc(Cl)cc2)C(=O)N(c2ccc(C#N)cc2)C1(O)c1cccc(C#N)c1 (stereo not drawn) [Example 323, 3-(1-(4-chlorophenyl)-3-(4-cyanophenyl)-4-hydroxy-5,5-dimethyl-2-oxoimidazolidin-4-yl)benzonitrile] | < 1 |

Same assay, conditions: Table 1, Compounds of Formula (I) and Formula (II); CGT enzymatic assay; read-out: IC50

| IC50 [µM] | Structure (SMILES) |
| --- | --- |
| 1 to 10 | O=C1N(c2ccc(Br)cc2)CC(O)(c2cccc(Cl)c2)N1c1ccc(Br)cc1 (stereo not drawn) [Example 35, 1,3-bis(4-bromophenyl)-4-(3-chlorophenyl)-4-hydroxyimidazolidin-2-one] |
| < 1 | Cc1cccc([C@]2(C)C(O)N(c3ccc(Cl)cc3)C(=O)N2c2ccc(Cl)cc2)c1 (single isomer, unassigned) [Example 222-2] |
| > 50 | O=C1N(c2ccc(OC3CCCC3)cc2)C(=O)C(O)(c2ccccc2)N1c1ccc(OC2CCCC2)cc1 (stereo not drawn) [Example 168, 1,3-bis(4-(cyclopentyloxy)phenyl)-5-hydroxy-5-phenylimidazolidine-2,4-dione] |
| < 1 | CCC1N(c2ccc(Br)cc2)C(=O)N(c2ccc(Br)cc2)C1(O)c1cccc(OC(F)(F)F)c1 (stereo in doubt) [Compound 83-2, (5R)-1,3-bis(4-bromophenyl)-5-ethyl-4-hydroxy-4-(3-(trifluoromethoxy)phenyl)imidazolidin-2-one] |
| 1 to 10 | CCCc1c(-c2cccc(CC)c2)n(-c2ccc(Cl)cc2)c(=O)n1-c1ccc(Cl)cc1 [Compound 244, 1,3-bis(4-chlorophenyl)-4-(3-ethylphenyl)-5-propyl-1,3-dihydro-2H-imidazol-2-one] |
| < 1 | C[C@@H]1N(c2ccc(Br)cc2)C(=O)N(c2ccc(Br)cc2)C1(O)c1cccc(OC(F)(F)F)c1 (stereo partly drawn) [Compound 66-1, (5S)-1,3-bis(4-bromophenyl)-4-hydroxy-5-methyl-4-(3-(trifluoromethoxy)phenyl)imidazolidin-2-one] |
| < 1 | Cc1ccc(N2C(=O)N(c3ccc(C)cc3)C(O)(c3cccc(OC(F)(F)F)c3)[C@H]2C(C)C)cc1 (single isomer, unassigned) [Compound 235-2] |
| 10 to 50 | O=C1N(c2cccc(Cl)c2)C(=O)C(O)(c2ccccc2)N1c1cccc(Cl)c1 (stereo not drawn) [Example 162, 1,3-bis(3-chlorophenyl)-5-hydroxy-5-phenylimidazolidine-2,4-dione] |
| < 1 | O=C1N(c2ccc(Br)cc2)C(C2CC2)C(O)(c2ccccc2)N1c1ccc(Br)cc1 (stereo not drawn) [Compound 115, 1,3-bis(4-bromophenyl)-5-cyclopropyl-4-hydroxy-4-phenylimidazolidin-2-one] |
| < 1 | CN(C)C[C@@H]1N(c2ccc(Cl)cc2)C(=O)N(c2ccc(Cl)cc2)C1(O)c1cccc(OC(F)(F)F)c1 (single isomer, unassigned) [Example 166-1] |
| < 1 | Cc1ccc(N2C(=O)N(c3ccc(C)cc3)C(O)(c3cccc(OC(F)(F)F)c3)C2(C)C)cc1 (stereo not drawn) [Example 176, 4-hydroxy-5,5-dimethyl-1,3-di-p-tolyl-4-(3-(trifluoromethoxy)phenyl)-imidazolidin-2-one] |
| < 1 | CC[C@H]1N(c2ccc(Br)cc2)C(=O)N(c2ccc(Br)cc2)C1(O)c1cccc(C)c1 (stereo partly drawn) [Compound 76-2, (5R)-1,3-bis(4-bromophenyl)-5-ethyl-4-hydroxy-4-(m-tolyl)imidazolidin-2-one] |
| < 1 | Cc1c(-c2ccccc2)n(-c2ccc(Br)cc2)c(=O)n1-c1ccc(Br)cc1 [Compound 257, 1,3-bis(4-bromophenyl)-4-methyl-5-phenyl-1,3-dihydro-2H-imidazol-2-one] |
| < 1 | C[C@H]1N(c2ccc(Br)cc2)C(=O)N(c2ccc(Br)cc2)C1(O)c1cccc(OC(F)(F)F)c1 (stereo partly drawn) [Compound 66-2, (5R)-1,3-bis(4-bromophenyl)-4-hydroxy-5-methyl-4-(3-(trifluoromethoxy)phenyl)imidazolidin-2-one] |
| < 1 | CCc1cccc(C2(O)C(C)N(c3ccc(Cl)cc3)C(=O)N2c2ccc(Cl)cc2)c1 (stereo not drawn) [Compound 69, 1,3-bis(4-chlorophenyl)-4-(3-ethylphenyl)-4-hydroxy-5-methylimidazolidin-2-one] |
| < 1 | CCC[C@H]1N(c2ccc(Br)cc2)C(=O)N(c2ccc(Br)cc2)C1(O)c1cccc(C)c1 (stereo partly drawn) [Compound 96-2, (5R)-1,3-bis(4-bromophenyl)-4-hydroxy-5-propyl-4-(m-tolyl)imidazolidin-2-one] |
| > 50 | O=C1N(c2ccc(Br)cc2)C(=O)C(O)(c2cc3ccccc3o2)N1c1ccc(Br)cc1 (stereo not drawn) [Example 213, 5-(benzofuran-2-yl)-1,3-bis(4-bromophenyl)-5-hydroxyimidazolidine-2,4-dione] |
| 1 to 10 | CC[C@@]1(C)N(c2ccc(Cl)cc2)C(=O)N(c2ccc(Cl)cc2)C1(O)c1cccc(OC(F)(F)F)c1 (single isomer, unassigned) [Example 163-1] |
| 1 to 10 | O=c1n(-c2ccc(Cl)cc2)c(-c2cccc(Cl)c2)c(C2CCCO2)n1-c1ccc(Cl)cc1 (stereo not drawn) [Compound 254, 4-(3-chlorophenyl)-1,3-bis(4-chlorophenyl)-5-(tetrahydrofuran-2-yl)-1,3-dihydro-2H-imidazol-2-one] |
| < 1 | CCc1c(-c2cccc(OC(F)(F)F)c2)n(-c2ccc(Cl)cc2)c(=O)n1-c1ccc(Cl)cc1 [Compound 247, 1,3-bis(4-chlorophenyl)-4-ethyl-5-(3-(trifluoromethoxy)phenyl)-1,3-dihydro-2H-imidazol-2-one] |
| < 1 | CCC1N(c2ccc(F)cc2)C(=O)N(c2ccc(F)cc2)C1(O)c1cccc(OC(F)(F)F)c1 (stereo not drawn) [Compound 131, 5-ethyl-1,3-bis(4-fluorophenyl)-4-hydroxy-4-(3-(trifluoromethoxy)phenyl)imidazolidin-2-one] |
| 1 to 10 | O=C1N(c2ccc(Cl)cc2)CC(O)(c2cccc(F)c2)N1c1ccc(Cl)cc1 (stereo not drawn) [Compound 64, 1,3-bis(4-chlorophenyl)-4-(3-fluorophenyl)-4-hydroxyimidazolidin-2-one] |
| < 1 | CC[C@H]1N(c2ccc(Cl)cc2)C(=O)N(c2ccc(Cl)cc2)C1(O)c1cccc(Cl)c1 (stereo partly drawn) [Compound 81-2, (5R)-4-(3-chlorophenyl)-1,3-bis(4-chlorophenyl)-5-ethyl-4-hydroxyimidazolidin-2-one] |
| < 1 | CC[C@@H]1N(c2ccc(Cl)cc2)C(=O)N(c2ccc(Cl)cc2)C1(O)c1cccc(C#N)c1 (single isomer, unassigned) [Compound 106-1] |
| 10 to 50 | O=C1N(c2ccc(Cl)cc2)CC(O)(c2ccccc2)N1c1ccc(Br)cc1 (stereo not drawn) [Example 38, 3-(4-bromophenyl)-1-(4-chlorophenyl)-4-hydroxy-4-phenylimidazolidin-2-one] |
| < 1 | CCC[C@@H]1N(c2ccc(Cl)cc2)C(=O)N(c2ccc(Cl)cc2)C1(O)c1cccc(CC)c1 (stereo partly drawn) [Compound 89-1, (5S)-1,3-bis(4-chlorophenyl)-4-(3-ethylphenyl)-4-hydroxy-5-propylimidazolidin-2-one] |
| < 1 | O=C1N(c2ccc(Br)cc2)[C@@H](C2CC2)C(O)(c2ccccc2)N1c1ccc(Br)cc1 (stereo partly drawn) [Compound 115-1, (5S)-1,3-bis(4-bromophenyl)-5-cyclopropyl-4-hydroxy-4-phenylimidazolidin-2-one] |
| < 1 | Cc1cccc(C2(C)C(O)N(c3ccc(Cl)cc3)C(=O)N2c2ccc(Cl)cc2)c1 (stereo not drawn) [Example 222, 1,3-bis(4-chlorophenyl)-5-hydroxy-4-methyl-4-(m-tolyl)imidazolidin-2-one] |

| Structure (SMILES) | IC50 [µM] |
| --- | --- |
| CC[C@@H]1N(c2ccc(Br)cc2)C(=O)N(c2ccc(Br)cc2)C1(O)c1ccccc1 (stereo partly drawn) [Example 25-1] | < 1 |
